Test systems include CAKI-1 renal; MDA-MB-435; NCI-H226 lung; OVCAR-8 ovarian; HOP-92 NSCLC; MOLT-4 leukemia; SW-620 colon; SK-OV-3 ovarian.
What all share (assay): inhibition of tumour cell growth, NCI panel, 48 h

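Each compound was tested at five concentrations against cells in 96-well plates for 48 hours. At the GI50, growth is halved. TGI: total growth inhibition.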 Where only a bound is given, the exact number is not on record here.

Results on seven compounds are retold here after PubChem BioAssay (NCI).

On to `Cc1cn2c(/C=N/N=C(N)N)c(-c3cccnc3)nc2s1`, for which the GI50 in the assay on CAKI-1 renal was 8.07 µM; in the assay on MDA-MB-435, 2.4 µM; in the assay on NCI-H226 lung, 10.1 µM; in the assay on OVCAR-8 ovarian it was 27.4 µM; in the assay with HOP-92 NSCLC it was 16.8 µM; with MOLT-4 leukemia it was 3.66 µM. Besides, the GI50 was 11.5 µM with SW-620 colon and 15.9 µM with SK-OV-3 ovarian. For the same compound, the TGI is 22.4 µM in the assay on CAKI-1 renal; 7.15 µM in the assay on MDA-MB-435; 29.4 µM in the assay with NCI-H226 lung; 69 µM in the assay with OVCAR-8 ovarian; 33.4 µM in the assay on HOP-92 NSCLC; 38.6 µM in the assay with MOLT-4 leukemia. The TGI with SW-620 colon amounted to 35.2 µM; with SK-OV-3 ovarian, 33.3 µM.
On to `CNC(=O)Oc1cc(C)c(/C=C/c2cncc(C(=O)NC)c2)c(C)c1`, for which the GI50 in the assay with CAKI-1 renal was over 25 µM; in the assay on MDA-MB-435 it was 8.44 µM; in the assay on NCI-H226 lung it was over 25 µM; in the assay on OVCAR-8 ovarian it was over 25 µM; with HOP-92 NSCLC, 9.13 µM; with MOLT-4 leukemia, over 25 µM. For the same compound, the GI50 with SW-620 colon and in the assay on SK-OV-3 ovarian was over 25 µM in each case. The TGI with CAKI-1 renal, in the assay with MDA-MB-435, in the assay on NCI-H226 lung, in the assay on OVCAR-8 ovarian, in the assay on HOP-92 NSCLC and with MOLT-4 leukemia was over 25 µM in each case. Moreover, the TGI with SW-620 colon and with SK-OV-3 ovarian was over 25 µM each time.
With `CCOC(=O)[C@@H](C)C[C@H](Cc1ccccc1)NC(=O)c1csc([C@@H](C[C@H](C(C)C)N(C)C(=O)[C@H](CC)NC(=O)[C@H]2CCCCN2C)OC(C)=O)n1`, the GI50 was under 0.00167 µM in the assay on CAKI-1 renal; under 0.00167 µM in the assay on MDA-MB-435; 0.00335 µM in the assay on NCI-H226 lung; 0.00434 µM with OVCAR-8 ovarian; under 0.00167 µM in the assay on HOP-92 NSCLC; 0.00896 µM with MOLT-4 leukemia. Moreover, the GI50 in the assay with SW-620 colon and in the assay with SK-OV-3 ovarian was under 0.00167 µM throughout. Also, the TGI with CAKI-1 renal was over 16.7 µM; in the assay with MDA-MB-435, 0.00169 µM; in the assay with NCI-H226 lung, 0.102 µM; in the assay with OVCAR-8 ovarian, over 16.7 µM; in the assay on HOP-92 NSCLC, 0.236 µM; in the assay on MOLT-4 leukemia, over 16.7 µM. In addition, the TGI with SW-620 colon and in the assay with SK-OV-3 ovarian was over 16.7 µM each time.
For the compound `Cc1cc(Oc2ccc3nc(COc4ccc(CC5SC(=O)NC5=O)cc4)n(C)c3c2)cc(C)c1N` (stereo unspecified), the GI50 in the assay on CAKI-1 renal is 30.9 µM; in the assay with MDA-MB-435, 27.4 µM; in the assay with NCI-H226 lung, 46.8 µM; with OVCAR-8 ovarian, 31.2 µM; in the assay with HOP-92 NSCLC it was over 34.4 µM; with MOLT-4 leukemia, 26.4 µM. Moreover, the GI50 was 30.6 µM in the assay with SW-620 colon and over 66.1 µM in the assay with SK-OV-3 ovarian. Moreover, the TGI in the assay with CAKI-1 renal was over 100 µM; with MDA-MB-435, over 100 µM; with NCI-H226 lung, over 95.7 µM; with OVCAR-8 ovarian, over 86.5 µM; in the assay with HOP-92 NSCLC it was over 87.5 µM; with MOLT-4 leukemia, 69.5 µM. In addition, the TGI in the assay with SW-620 colon and with SK-OV-3 ovarian was over 100 µM each time.
As to `Cc1cc(O)cc(C)c1/C=C/c1cncc(-c2nn[nH]n2)c1`, the GI50 in the assay on CAKI-1 renal, in the assay on MDA-MB-435, in the assay with NCI-H226 lung, in the assay on OVCAR-8 ovarian, with HOP-92 NSCLC and in the assay with MOLT-4 leukemia was over 25 µM in each case. The GI50 in the assay with SW-620 colon and in the assay on SK-OV-3 ovarian was over 25 µM each time. In addition, the TGI in the assay on CAKI-1 renal, in the assay on MDA-MB-435, with NCI-H226 lung, with OVCAR-8 ovarian, with HOP-92 NSCLC and with MOLT-4 leukemia was over 25 µM each time. The TGI in the assay on SW-620 colon and with SK-OV-3 ovarian was over 25 µM each time.
Turning to `CCOC(=O)/C(=C(/C)NCC(C)C)c1cc(O)c(O)c2c(C)cc(=O)[nH]c12`, the GI50 in the assay on CAKI-1 renal was 5.17 µM; with MDA-MB-435, 5.93 µM; in the assay with NCI-H226 lung, 10.6 µM; in the assay with OVCAR-8 ovarian, 4.87 µM; in the assay with HOP-92 NSCLC, 9.51 µM; with MOLT-4 leukemia, 3.8 µM. The GI50 is 4.95 µM in the assay with SW-620 colon and 13 µM with SK-OV-3 ovarian. In addition, the TGI is over 100 µM with CAKI-1 renal; over 100 µM in the assay on MDA-MB-435; over 100 µM in the assay on NCI-H226 lung; over 100 µM in the assay with OVCAR-8 ovarian; 45 µM with HOP-92 NSCLC; over 100 µM in the assay on MOLT-4 leukemia. Moreover, the TGI with SW-620 colon and with SK-OV-3 ovarian was over 100 µM each time.
For `COc1ccc(-c2c(-c3cc(OC)c(OC)c(OC)c3)noc2N)cc1`, the GI50 with CAKI-1 renal was under 0.01 µM; in the assay with MDA-MB-435, under 0.01 µM; with NCI-H226 lung, 0.0244 µM; in the assay on OVCAR-8 ovarian, 0.0173 µM; with HOP-92 NSCLC, under 0.01 µM; in the assay on MOLT-4 leukemia it was 0.0312 µM. Moreover, the GI50 is under 0.01 µM with SW-620 colon and under 0.011 µM with SK-OV-3 ovarian. For the same compound, the TGI with CAKI-1 renal is over 100 µM; with NCI-H226 lung, over 100 µM; in the assay with OVCAR-8 ovarian it was 15.8 µM; in the assay on HOP-92 NSCLC, over 100 µM; in the assay with MOLT-4 leukemia, 10.4 µM; in the assay with SW-620 colon it was over 100 µM. Also, the TGI with SK-OV-3 ovarian worked out at 16.5 µM.
